We go through 19 molecules from US12638439B2, “Method of using human spheroids for drug discovery” (AxoSim, Inc., priority 2019, dated 2026).

“Also recorded” adds a separate entry of the source. Where a name gives a salt, the structure may show the parent alone.

One data set relates to RTT spheroids. Briefly: FLIPR spontaneous calcium oscillation assay of iPSC-derived cortical brain spheroids (SMART library screen). Type of data set: cell-based, human. The note with it: for outcome of the SMART library screen (multivariant analysis): 298-compound SMART library on WT and RTT matured spheroids; for rescue or reversal of the RTT disease state, multi parametric plot of spheroid calcium oscillation activity / effect of the drugs on the condition (spontaneous calcium oscillations): 1 micro molar; for rescue or reversal of the RTT disease state, multi parametric plot of spheroid calcium oscillation activity: FIG. 3 and FIG. 4, compared with WT spheroids; for effect of the drugs on the condition (spontaneous calcium oscillations): WT and RTT spheroids, FIG. 4. From the text:
In one embodiment, the present disclosure provides human induced pluripotent stem cells iPScs that are subsequently differentiated into human cortical neurons comprising neurons and astrocytes in approximately a 50:50 ratio. The ratio can be adjusted on a case by case basis depending on the particular disease of interest from 1 to 99% either neurons or astrocytes. The 3D spheroids are comprised of approximately 50:50 neurons to astrocytes ratio +1-10%. The methods of differentiating and forming 3 dimensional spheroids and functional testing with FLIPR optical techniques is described in copending patent application No. 62/532667. In the examples in this invention we use a disease model cell line which are known to carry genes responsible for Rett syndrome.
In the present disclosure both Wild Type (WT) and Rett Disease (RTT) cortical brain human tissue spheroids were prepared for the purpose of high throughput screening to identify therapeutic compounds that can modulate the brain activity in an attempt to revert or rescue the disease state back to near normal activity or homeostasis. For example, the cell lines employed (control or “WT” and disease “RTT”) may be from a family without and with the Rett disease phenotype.
The method disclosed herein may, in one embodiment, include manufacturing 3D spheroids in 384 well round bottom microtiter plates, see, e.g. U.S. patent application No. 62/532,667, the disclosure of which is incorporated herein. […] In the present disclosure, 6 to 14 weeks of maturation is a maturation range for testing, e.g., 8 to 10 weeks of maturation.
The oscillations being measured are from calcium flux moving into and out of the cells at ambient conditions. The oscillations are spontaneous and not generated by an external source. The measurements are conducted in real time and the data captured by using a technique called FLIPR that is well known in the prior art. […] When analyzing the data, it is important to understand that multiple factors contribute to the signal being recorded by the FLIPR software. Therefore, in the present disclosure 7 parameters are recorded to determine if the data generated from the spheroid is meaningful. The parameters measured are, e.g., peak count, peak width, average peak spacing, peak spacing standard deviation, peak decay time, peak rise time, and/or peak amplitude.
In the present disclosure, the SMART library that contained 298 compounds was used on both WT and RTT matured spheroids over several weeks and the FLIPR data collected and analyzed for potential therapeutic efficacy. The SMART (Selected Molecular Agents for Rett Therapy) library of compounds is well vetted by modern day bioinformatics methods, tightly focused on Rett syndrome and its biological causes. The library is currently housed at the University of Illinois-Chicago. […] With the goals in mind to save both time and resources and accelerate drug discovery for Rett syndrome, the compounds in the SMART library are readily available to investigators working on Rett syndrome research.

A further data set relates to pregnant mice. The conditions noted are these: given to pregnant mice; cited from earlier work.
The next data set concerns pregnant rats. The conditions noted are these: given to pregnant rats; cited from earlier work.
For a further data set, the system named is humans. The conditions noted are these: 1950s and 1960s; cited from earlier work.

`CC(=O)Nc1nnc(S(N)(=O)=O)s1` [Acetazolamide]: the “outcome of the SMART library screen (multivariant analysis)” value (shortened to “outcome of the SMART library screen”) with RTT spheroids was “therapeutics of interest”.
Still for that read-out and setting: as for `CNCC[C@@H](Oc1ccccc1C)c1ccccc1` [Atomoxetine, Atomoxetine (Tomoxetine)], the entry is “therapeutics of interest”.
Take `CC(C)n1c(=O)n(C(=O)NC2CC3CCC(C2)N3C)c2ccccc21` (stereo not shown) [BIMU-8]: the “outcome of the SMART library screen” value with RTT spheroids was “therapeutics of interest”. For the same molecule, the “rescue or reversal of the RTT disease state, multi parametric plot of spheroid calcium oscillation activity” value in the data set on RTT spheroids (RTT spheroids) is listed as “significant effect on reversing or rescuing the RTT disease state”. Further, the “rescue of spontaneous calcium peak frequency and amplitude behavior to the WT state” value in the data set with RTT spheroids (RTT spheroids, 2-week exposure time, FIG. 5) is listed as “rescuing the oscillation activity back to WT normal behavior; also recorded: nearly rescued the WT state”.
Take `NCC(CC(=O)O)c1ccc(Cl)cc1` (stereo not shown) [Baclofen]: in the data set on RTT spheroids, the “outcome of the SMART library screen” value is listed as “therapeutics of interest”.
As to `OC(CCN1CCCCC1)(c1ccccc1)C1CCCCC1` (stereo not shown) [Benzhexol Hydrochloride], the “outcome of the SMART library screen” value in the data set on RTT spheroids was “therapeutics of interest”.
Still for that read-out and setting: as for `CN(C)CCCOc1nn(Cc2ccccc2)c2ccccc12.Cl` [Benzydiamine Hydrochloride], the entry is “therapeutics of interest”.
On the same count and under the same terms, as for `OC(CCN1CCCCC1)(c1ccccc1)C1CC2C=CC1C2` (stereo not shown) [Biperiden], the entry is “therapeutics of interest”.
With `O=C1Nc2cc(Br)ccc2/C1=C1/Nc2ccccc2/C1=N\O` [Bromoindirubin-3-oxime], the “outcome of the SMART library screen” value in the data set on RTT spheroids is on record as “therapeutics of interest”.
Same read-out and setting: for `COc1cc(N)c(Cl)cc1C(=O)NC1CCN(Cc2ccccc2)CC1` [Clebopride Mal ate] the value was “therapeutics of interest”.
On the same count and under the same terms, as for `CN1CCC[C@@H]1Cc1c[nH]c2ccc(CCS(=O)(=O)c3ccccc3)cc12` [Eletriptan HBr Salt], the entry is “therapeutics of interest”.
On to `Oc1cc(O)c2c(c1)O[C@H](c1cc(O)c(O)c(O)c1)[C@H](O)C2` [Epigallocatechin], for which the “rescue or reversal of the RTT disease state, multi parametric plot of spheroid calcium oscillation activity” value in the data set with RTT spheroids (RTT spheroids) is on record as “no effect to rescue or reverse the spontaneous calcium oscillations”. Moreover, the “effect of the drugs on the condition (spontaneous calcium oscillations)” value in the data set on RTT spheroids is reported as “made the condition worse”.
Turning to `CC1Nc2ccc(Cl)cc2S(=O)(=O)N1` (stereo not shown) [IDRA-21], in the data set with RTT spheroids, the “outcome of the SMART library screen” value is “therapeutics of interest”.
Still for that read-out and setting: for `COc1cc(C(C)=O)ccc1OCCCN1CCC(c2noc3cc(F)ccc23)CC1` [Iloperidone] the value was “therapeutics of interest”; for `Cc1nccn1CC1CCc2c(c3ccccc3n2C)C1=O` (stereo not shown) [Ondansetron], “therapeutics of interest”; for `CC(C)COc1ccc(CNC(=O)N(Cc2ccc(F)cc2)C2CCN(C)CC2)cc1` [Pinmavanserin], “therapeutics of interest”.
On the same count and under the same terms, for `O=c1n(CCCN2CCN(c3cccc(Cl)c3)CC2)nc2ccccn12` [Trazodone, Trazodone (Beneficat)] the value was “therapeutics of interest”; for `CCOC(=O)C1=C[C@]2(CC)CCCN3CCc4c(n1c1ccccc41)[C@@H]32` [Vinpocetine], “therapeutics of interest”.
Take `O=C(CCCCCCC(=O)Nc1ccccc1)NO` [Vorinostat]: the “rescue or reversal of the RTT disease state, multi parametric plot of spheroid calcium oscillation activity” value in the data set on RTT spheroids (RTT spheroids) is reported as “no effect to rescue or reverse the spontaneous calcium oscillations”. Also, the “effect of the drugs on the condition (spontaneous calcium oscillations)” value in the data set on RTT spheroids was “made the condition worse”.
With `O=C1CCC(N2C(=O)c3ccccc3C2=O)C(=O)N1` (stereo not shown) [thalidomide], the values for the birth defects entry with pregnant mice, with pregnant rats and with humans were “does not cause birth defects”, “does not cause birth defects” and “caused an international epidemic of birth defects”, respectively.
